Data published in patent US8017612B2, “Piperazine compound and use thereof as a HCV polymerase inhibitor” (priority 2006, dated 2011).

Experiments:
[1] = molecular target: T1, HCV polymerase (NS5B) type 1b (Hepatitis C virus genotype 1b, UniProt P26663); assay: Assay of enzyme (HCV polymerase) inhibitory activity, type 1b enzyme; assay type: biochemical, HCV BK strain (type 1b)
T1 construct: a region encoding NS5B (J Virol 1991 March, 65(3), 1105-13, 544 amino acids after deletion of 47 amino acids on the C-terminal); 6xHis (C); made in house; host or cells: Escherichia coli
In short: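 Rxn: NS5B 1b (BK, ΔC47, His6) 0.5 μg/ml; substrate RNA 5 μg/ml; ATP/GTP/CTP 50 μM, UTP 2 μM + [5,6-3H]UTP; 20 mM Tris pH 7.5, 5 mM MgCl2, 50 mM NaCl, 1 mM EDTA/DTT. 25 °C, 60 min. Stop with TCA/pyrophosphate, filter, scintillation count; IC50 vs. untreated.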

[2] = molecular target: T2, HCV polymerase (NS5B) type 1a (Hepatitis C virus genotype 1a, UniProt P26664); assay: Assay of enzyme (HCV polymerase) inhibitory activity, type 1a enzyme; assay type: biochemical, HCV type 1a (cloned from the blood of patients)
T2 construct: made in house; host or cells: Escherichia coli (by the 'similar method' of the 1b enzyme)
In short: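 NS5B Δ47 C-term His6 (type 1a, 1.5 μg/ml); substrate RNA 5 μg/ml; ATP/GTP/CTP 50 μM, UTP 2 μM + [5,6-3H]UTP; Tris pH 7.5, MgCl2 5 mM; 25° C, 60 min. TCA/pyrophosphate stop, GF/B filter, scintillation. IC50 vs no-compound control.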

[3] = HCV polymerase inhibitory activity IC50, 1b, type 1b enzyme
[4] = HCV polymerase inhibitory activity IC50, 1a, type 1a enzyme
[5] = HCV polymerase inhibitory activity (IC50), 1b, type 1b enzyme 0.5 μg/ml, 25° C., 60 min
[6] = HCV polymerase inhibitory activity (IC50), 1a, type 1a enzyme 1.5 μg/ml, 25° C., 60 min

Compound | IC50 [1, 3] [nM] | IC50 [2, 4] [nM] | IC50 [1, 5] [nM] | IC50 [2, 6] [nM]
CCCCc1ccc(CNC(=O)[C@H]2CN(c3nc4cn[nH]c(=O)c4s3)CCN2S(=O)(=O)c2ccc(OC(F)(F)F)cc2)cc1 [Example 841, (R)-4-(7-oxo-6,7-dihydro-thiazolo[4,5-d]pyridazin-2-yl)-1-(4-trifluoromethoxy-benzenesulfonyl)-piperazine-2-carboxylic acid 4-butyl-benzylamide] | < 100 | < 100 | – | –
CCC(F)(F)c1ccc(CNC(=O)[C@H]2CN(C(=O)Nc3ccnc(C(=O)O)c3)CCN2S(=O)(=O)c2ccc(OC(F)(F)F)cc2)cc1 [Example 502, 4-{[(R)-3-[4-(1,1-difluoro-propyl)-benzylcarbamoyl]-4-(4-trifluoromethoxy-benzenesulfonyl)-piperazine-1-carbonyl]-amino}-pyridine-2-carboxylic acid] | – | – | 100 to 1000 | 100 to 1000
CCCc1ccc(CNC(=O)[C@H]2CN(C(=O)Nc3nc(CC(=O)N4CCOCC4)cs3)CCN2S(=O)(=O)c2ccc(OC(F)(F)F)cc2)cc1 [Example 475, (R)-4-(4-trifluoromethoxy-benzenesulfonyl)-piperazine-1,3-dicarboxylic acid 1-{[4-(2-morpholin-4-yl-2-oxo-ethyl)-thiazol-2-yl]-amide} 3-(4-propyl-benzylamide)] | – | – | < 100 | 100 to 1000
CCCc1ccc(S(=O)(=O)N2CCN(C(C)=O)C[C@@H]2C(=O)NCc2ccc(CC)cc2)cc1 [Example 247, (R)-4-acetyl-1-(4-propyl-benzenesulfonyl)-piperazine-2-carboxylic acid 4-ethyl-benzylamide] | – | – | < 100 | 100 to 1000
CCC(F)(F)c1ccc(CNC(=O)[C@H]2CN(c3nc4nc(C)ncc4s3)CCN2S(=O)(=O)c2ccc(OC(F)(F)F)cc2)cc1 [Example 926, (R)-4-(5-methyl-thiazolo[4,5-d]pyrimidin-2-yl)-1-(4-trifluoromethoxy-benzenesulfonyl)-piperazine-2-carboxylic acid 4-(1,1-difluoro-propyl)-benzylamide] | < 100 | < 100 | – | –
O=C(NCc1ccc(OC(F)F)cc1)[C@H]1CN(c2nc3nc(Cl)ncc3s2)CCN1S(=O)(=O)c1ccc(OC(F)F)cc1 [Example 955, (R)-4-(5-chloro-thiazolo[4,5-d]pyrimidin-2-yl)-1-(4-difluoromethoxy-benzenesulfonyl)-piperazine-2-carboxylic acid 4-difluoromethoxy-benzylamide] | < 100 | < 100 | – | –
O=C(NCc1ccc(OC(F)(F)F)cc1)[C@H]1CN(c2nc3nc(CC4CC4)ncc3s2)CCN1S(=O)(=O)c1ccc(OC(F)(F)F)cc1 [Example 992, (R)-4-(5-cyclopropylmethyl-thiazolo[4,5-d]pyrimidin-2-yl)-1-(4-trifluoromethoxy-benzenesulfonyl)-piperazine-2-carboxylic acid 4-trifluoromethoxy-benzylamide] | < 100 | < 100 | – | –
O=C(NCc1ccc(OC(F)(F)F)cc1)[C@H]1CN(c2cnc3cncnc3n2)CCN1S(=O)(=O)c1ccc(C(F)(F)F)cc1 [Example 791, (R)-4-pteridin-7-yl-1-(4-trifluoromethyl-benzenesulfonyl)-piperazine-2-carboxylic acid 4-trifluoromethoxy-benzylamide] | < 100 | < 100 | – | –
CCC(F)(F)c1ccc(CNC(=O)[C@H]2CN(C(=O)N3CCC(C(=O)O)CC3)CCN2S(=O)(=O)c2ccc(OC(F)(F)F)cc2)cc1 [Example 706, 1-[(R)-3-[4-(1,1-difluoro-propyl)-benzylcarbamoyl]-4-(4-trifluoromethoxy-benzenesulfonyl)-piperazine-1-carbonyl]-piperidine-4-carboxylic acid] | > 1000 | > 1000 | – | –
CCCc1ccc(CNC(=O)[C@H]2CN(c3nc(C)c(C(=O)O)s3)CCN2S(=O)(=O)c2ccc(OC(F)(F)F)c(CCC)c2)cc1 [Example 499, 4-methyl-2-[(R)-3-(4-propyl-benzylcarbamoyl)-4-(3-propyl-4-trifluoromethoxy-benzenesulfonyl)-piperazin-1-yl]-thiazole-5-carboxylic acid] | – | – | < 100 | < 100
CN(C)c1ccc(CNC(=O)C2CN(C(=O)CNCc3ccccc3)CCN2S(=O)(=O)c2ccc(I)cc2)cc1 (centres unmarked) [Example 105, 4-(2-benzylamino-acetyl)-1-(4-iodo-benzenesulfonyl)-piperazine-2-carboxylic acid 4-dimethylamino-benzylamide] | – | – | > 1000 | > 1000
CC(C)(O)c1ncc2sc(N3CCN(S(=O)(=O)c4ccc(OC(F)(F)F)cc4)[C@@H](C(=O)NCc4ccc(OC(F)(F)F)cc4)C3)nc2n1 [Example 1047, (R)-4-[5-(1-hydroxy-1-methyl-ethyl)-thiazolo[4,5-d]pyrimidin-2-yl]-1-(4-trifluoromethoxy-benzenesulfonyl)-piperazine-2-carboxylic acid 4-trifluoromethoxy-benzylamide] | < 100 | < 100 | – | –
COc1nncc2nc(N3CCN(S(=O)(=O)c4ccc(OC(F)(F)F)cc4)[C@@H](C(=O)NCc4ccc(OC(F)(F)F)cc4)C3)sc12 [Example 944, (R)-4-(7-methoxy-thiazolo[4,5-d]pyridazin-2-yl)-1-(4-trifluoromethoxy-benzenesulfonyl)-piperazine-2-carboxylic acid 4-trifluoromethoxy-benzylamide] | < 100 | < 100 | – | –
CCCc1ccc(CNC(=O)[C@H]2CN(C(C)=O)CCN2S(=O)(=O)c2ccc(C(C)C)cc2)c(C)c1 [Example 12, (R)-4-acetyl-1-(4-isopropyl-benzenesulfonyl)-piperazine-2-carboxylic acid 2-methyl-4-propyl-benzylamide] | – | – | < 100 | < 100
O=C(NCc1ccc(OC(F)F)cc1F)[C@H]1CN(c2nc3nc(C(F)(F)F)ncc3s2)CCN1S(=O)(=O)c1ccc(OC(F)(F)F)cc1 [Example 1044, (R)-1-(4-trifluoromethoxy-benzenesulfonyl)-4-(5-trifluoromethyl-thiazolo[4,5-d]pyrimidin-2-yl)-piperazine-2-carboxylic acid 4-difluoromethoxy-2-fluoro-benzylamide] | < 100 | < 100 | – | –
CCC(F)(F)c1ccc(CNC(=O)[C@H]2CN(c3cnc(CO)cn3)CCN2S(=O)(=O)c2ccc(OC(F)(F)F)cc2)cc1 [Example 560, (R)-5′-hydroxymethyl-4-(4-trifluoromethoxy-benzenesulfonyl)-3,4,5,6-tetrahydro-2H-[1,2′]bipyrazinyl-3-carboxylic acid 4-(1,1-difluoro-propyl)-benzylamide] | – | – | < 100 | < 100
O=C(NCc1ccc(OC(F)(F)F)cc1)[C@H]1CN(c2nc3cnncc3s2)CCN1S(=O)(=O)c1ccc(OC(F)(F)F)cc1 [Example 879, (R)-4-thiazolo[4,5-d]pyridazin-2-yl-1-(4-trifluoromethoxy-benzenesulfonyl)-piperazine-2-carboxylic acid 4-trifluoromethoxy-benzylamide] | < 100 | < 100 | – | –
CCc1ccc(S(=O)(=O)N2CCN(c3cnc(CO)cn3)C[C@@H]2C(=O)NCc2ccc(OC(F)(F)F)cc2)cc1 [Example 796, (R)-4-(4-ethyl-benzenesulfonyl)-5′-hydroxymethyl-3,4,5,6-tetrahydro-2H-[1,2′]bipyrazinyl-3-carboxylic acid 4-trifluoromethoxy-benzylamide] | < 100 | < 100 | – | –
CC(C)(C)c1ccc(CNC(=O)[C@H]2CN(c3cnc4c(n3)NC(=O)OC4)CCN2S(=O)(=O)c2ccc(OC(F)(F)F)cc2)cc1 [Example 579, (R)-4-(2-oxo-1,4-dihydro-2H-pyrazino[2,3-d][1,3]oxazin-7-yl)-1-(4-trifluoromethoxy-benzenesulfonyl)-piperazine-2-carboxylic acid 4-tert-butyl-benzylamide] | – | – | < 100 | < 100
CCCc1ccc(S(=O)(=O)N2CCN(c3nc(C(=O)O)c(CO)s3)C[C@@H]2C(=O)NCc2ccc(C(C)C)cc2)cc1 [Example 535, 5-hydroxymethyl-2-[(R)-3-(4-isopropyl-benzylcarbamoyl)-4-(4-propyl-benzenesulfonyl)-piperazin-1-yl]-thiazole-4-carboxylic acid] | – | – | < 100 | < 100
CCCc1ccc(CNC(=O)[C@H]2CN(c3cnc4cncnc4n3)CCN2S(=O)(=O)c2ccc(OC(F)(F)F)cc2)cn1 [Example 720, (R)-4-pteridin-7-yl-1-(4-trifluoromethoxy-benzenesulfonyl)-piperazine-2-carboxylic acid (6-propyl-pyridin-3-ylmethyl)-amide] | < 100 | < 100 | – | –
Cc1cc(=O)nc2sc(N3CCN(S(=O)(=O)c4ccc(C(F)(F)F)cc4)[C@@H](C(=O)NCc4ccc(OC(F)F)cc4)C3)nn12 [Example 1032, (R)-4-(5-methyl-7-oxo-7H-[1,3,4]thiadiazolo[3,2-a]pyrimidin-2-yl)-1-(4-trifluoromethyl-benzenesulfonyl)-piperazine-2-carboxylic acid 4-difluoromethoxy-benzylamide] | < 100 | < 100 | – | –
